The values below come from patent US20170121344A1 (Siga Technologies, Inc., priority 2009, published 2017).

Read-outs that look alike come from different tables or passages of the source.

The subject of assay [1] is Dengue-2 (Strain New Guinea C). The assay is described as follows: Viral yield assay against Dengue-2 in Vero cells. The following applies: Dengue virus, read-out: Activity (EC50 in μM) DENV-2. The assay is classed as cell-based, Dengue virus. The essentials:
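Infect Vero cells with virus (MOI 0.1), add compound or DMSO, incubate at 37° C, collect progeny at 48 hours post infection, then titrate on Vero cells to obtain EC50.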

The test system of a further assay is DENV-1. The assay is described as follows: Viral yield assay against DENV-1 in Vero cells. Type of assay: cell-based. The note with it: Dengue virus. The method, then:
(§1) Compounds that were active in the primary screen were tested for activity in viral yield assays. […] Vero cells in 12-well plates were infected with dengue-2 virus at a multiplicity of infection (MOI) of 0.1, treated with compound (or DMSO as a control), incubated at 37° C., harvested 48 hours post infection and titered on Vero cells as described above. The EC50 was calculated through ExcelFit. Activities against other serotypes of dengue virus were determined in a similar way.

The test system of the next assay is DENV-4. The assay is described as follows: Viral yield assay against DENV-4 in Vero cells. The assay is classed as cell-based. The following applies: Dengue virus. On the procedure:
as §1

The test system of the next assay is DENV-3. The assay is described as follows: Viral yield assay against DENV-3 in Vero cells. The assay is classed as cell-based. The following applies: Dengue virus. On the procedure: as §1
Setting [2] is: DENV2, viral yield assay, Vero cells, MOI 0.1, 48 hours post infection.

The EC50 is the midpoint of the concentration-response curve. Regarding `Nc1c(C(=O)Nc2cccc(Cl)c2)sc2nc(-c3cccs3)ccc12` [Compound 445, 3-amino-N-(3-chlorophenyl)-6-(2-thienyl)thieno[2,3-b]pyridine-2-carboxamide], the EC50 was < 5 µM in assay [1] (setting [2]); < 5 µM in the assay with DENV-1 (DENV1, viral yield assay); < 5 µM in the assay with DENV-4 (DENV4, viral yield assay); < 5 µM in the assay on DENV-3 (DENV3, viral yield assay).

With `Nc1c(C(=O)Nc2ccc(F)cc2)sc2nc(-c3ccc(F)cc3)ccc12` [Compound 490, 3-amino-N,6-bis(4-fluorophenyl) thieno[2,3-b]pyridine-2-carboxamide], the EC50 in assay [1] (setting [2]) was < 5 µM; with DENV-1 (DENV1, viral yield assay), < 5 µM; in the assay on DENV-4 (DENV4, viral yield assay) it was < 5 µM; in the assay on DENV-3 (DENV3, viral yield assay) it was 5 to 25 µM.

For `COc1ccc(-c2ccc3c(N)c(C(=O)Nc4ccc(C(F)(F)F)cc4)sc3n2)cc1OC` [Compound 475, 3-amino-6-(3,4-dimethoxyphenyl)-N-[4-(trifluoromethyl)phenyl]thieno[2,3-b] pyridine-2-carboxamide], the 50% effective concentration (EC50) in assay [1] (setting [2]) is < 5 µM; in the assay on DENV-1 (DENV1, viral yield assay), < 5 µM; with DENV-4 (DENV4, viral yield assay), < 5 µM; in the assay with DENV-3 (DENV3, viral yield assay), < 5 µM.

In the case of `CCc1cccc(NC(=O)c2sc3nc(-c4ccc(F)cc4)ccc3c2N)c1` [Compound 609, 3-amino-N-(3-ethylphenyl)-6-(4-fluorophenyl)thieno[2,3-b]pyridine-2-carboxamide], the EC50 was < 5 µM in assay [1] (setting [2]); < 5 µM in the assay with DENV-1 (DENV1, viral yield assay); 5 to 25 µM with DENV-4 (DENV4, viral yield assay); 5 to 25 µM in the assay with DENV-3 (DENV3, viral yield assay).

Turning to `CNCC(=O)Nc1c(C(=O)Nc2cccc(C(F)(F)F)c2)sc2nc(-c3cccs3)ccc12` [Compound 307, 3-[[2-(methylamino)acetyl]amino]-6-(2-thienyl)-N-[3-(trifluoromethyl)phenyl]thieno[2,3-b]pyridine-2-carboxamide], the EC50 in assay [1] (DENV2, Vero cells) is < 5 µM; in the assay on DENV-1 (DENV1), < 5 µM; in the assay with DENV-4 (DENV4), < 5 µM; in the assay with DENV-3 (DENV3), < 5 µM.

In the case of `O=C(O)CC(=O)Nc1c(C(=O)Nc2nnc(-c3ccccc3)s2)sc2nc3c(cc12)CCCCC3` [Compound 295, 3-oxo-3-((2-((5-phenyl-1,3,4-thiadiazol-2-yl)carbamoyl)-6,7,8,9-tetrahydro-5H-cyclohepta[b]thieno[3,2-e]pyridin-3-yl)amino)propanoic acid], the EC50 is < 5 µM in assay [1] (DENV2, Vero cells); < 5 µM in the assay on DENV-1 (DENV1); < 5 µM in the assay with DENV-4 (DENV4); < 5 µM in the assay on DENV-3 (DENV3).

On to `COc1ccc(-c2ccc3c(N)c(C(=O)Nc4ccc(Br)c(C(F)(F)F)c4)sc3n2)cc1OC` [Compound 583, 3-amino-N-[4-bromo-3-(trifluoromethyl)phenyl]-6-(3,4-dimethoxyphenyl)thieno [2,3-b]pyridin-2-carboxamide], for which the EC50 in assay [1] (setting [2]) was < 5 µM; with DENV-1 (DENV1, viral yield assay) it was < 5 µM; in the assay on DENV-4 (DENV4, viral yield assay), < 5 µM; in the assay with DENV-3 (DENV3, viral yield assay), < 5 µM.

Turning to `Nc1c(C(=O)Nc2ccc(OC(F)(F)F)cc2)sc2nc(-c3ccncc3)ccc12` [Compound 417, 3-amino-6-(4-pyridyl)-N-[4-(trifluoromethoxy)phenyl]thieno[2,3-b] pyridine-2-carboxamide], the EC50 in assay [1] (setting [2]) is < 5 µM; in the assay with DENV-1 (DENV1, viral yield assay), < 5 µM; with DENV-4 (DENV4, viral yield assay) it was < 5 µM; in the assay with DENV-3 (DENV3, viral yield assay) it was < 5 µM.

For `COc1ccc(-c2ccc3c(N)c(C(=O)Nc4cc(Cl)ccc4Cl)sc3n2)cc1OC` [Compound 575, 3-amino-N-(2,5-dichlorophenyl)-6-(3,4-dimethoxyphenyl)thieno[2,3-b]pyridine-2-carboxamide], the EC50 is < 5 µM in assay [1] (setting [2]); < 5 µM with DENV-1 (DENV1, viral yield assay); < 5 µM with DENV-4 (DENV4, viral yield assay); < 5 µM in the assay with DENV-3 (DENV3, viral yield assay).

As to `O=C(O)CCC(=O)Nc1c(C(=O)Nc2cccc(C(F)(F)F)c2)sc2nc(-c3cccs3)ccc12` [Compound 311, 4-oxo-4-[[6-(2-thienyl)-2-[[3-(trifluoromethyl)phenyl]carbamoyl]thieno[2,3-b]pyridin-3-yl]amino]butanoic acid], the EC50 is < 5 µM in assay [1] (DENV2, Vero cells); < 5 µM with DENV-1 (DENV1); < 5 µM in the assay on DENV-4 (DENV4); < 5 µM in the assay on DENV-3 (DENV3).

With `COc1cccc(-c2ccc3c(N)c(C(=O)Nc4ccc(SC)cc4)sc3n2)c1` [Compound 566, 3-amino-6-(3-methoxyphenyl)-N-(4-methylsulfanylphenyl)thieno[2,3-b] pyridine-2-carboxamide], the EC50 is < 5 µM in assay [1] (setting [2]); < 5 µM with DENV-1 (DENV1, viral yield assay); < 5 µM in the assay on DENV-4 (DENV4, viral yield assay); < 5 µM in the assay with DENV-3 (DENV3, viral yield assay).

Consider `Nc1c(C(=O)/N=c2\[nH]c3ccccc3s2)sc2nc(-c3cccs3)ccc12` [Compound 486, (NE)-3-amino-N-(3H-1,3-benzo-thiazol-2-ylidene)-6-(2-thienyl)thieno [2,3-b]pyridine-2-carboxamide], for which the EC50 is < 5 µM in assay [1] (DENV2, Vero, 48 h); < 5 µM with DENV-1 (DENV1, viral yield assay); < 5 µM in the assay with DENV-4 (DENV4, viral yield assay); < 5 µM in the assay with DENV-3 (DENV3, viral yield assay).

For `COc1cccc(-c2ccc3c(N)c(C(=O)Nc4cccc(Cl)c4)sc3n2)c1` [Compound 561, 3-amino-N-(3-chlorophenyl)-6-(3-methoxyphenyl)thieno[2,3-b]pyridine-2-carboxamide], the EC50 in assay [1] (setting [2]) is < 5 µM; in the assay with DENV-1 (DENV1, viral yield assay), < 5 µM; with DENV-4 (DENV4, viral yield assay), < 5 µM; in the assay on DENV-3 (DENV3, viral yield assay) it was < 5 µM.

Regarding `Nc1c(C(=O)N(CCC(=O)O)c2ccc(Br)cc2)sc2nc(-c3ccc(Cl)cc3)ccc12` [Compound 350, 3-(N-[3-amino-6-(4-chloro-phenyl)thieno [2,3-b]pyridine-2-carbonyl]-4-bromoanilino) propanoic acid], the EC50 in assay [1] (setting [2]) is < 5 µM; in the assay on DENV-1 (DENV1, viral yield assay) it was < 5 µM; in the assay with DENV-4 (DENV4, viral yield assay), < 5 µM; with DENV-3 (DENV3, viral yield assay) it was < 5 µM.

Take `Nc1c(C(=O)Nc2cccc(F)c2)sc2nc(-c3cccs3)ccc12` [Compound 464, 3-amino-N-(3-fluorophenyl)-6-(2-thienyl)thieno[2,3-b]pyridine-2-carboxamide]: the half-maximal effective concentration (EC50) in assay [1] (setting [2]) is < 5 µM; in the assay with DENV-1 (DENV1, viral yield assay) it was < 5 µM; in the assay with DENV-4 (DENV4, viral yield assay), < 5 µM; in the assay on DENV-3 (DENV3, viral yield assay), < 5 µM.

Take `Nc1c(C(=O)Nc2ccc3c(c2)OCO3)sc2nc(-c3ccc4c(c3)OCO4)ccc12` [Compound 591, 3-amino-N,6-bis(1,3-benzodioxol-5-yl) thieno[2,3-b]pyridine-2-carboxamide]: the EC50 is < 5 µM in assay [1] (DENV2, Vero, 48 h); < 5 µM with DENV-1 (DENV1, viral yield assay); < 5 µM with DENV-4 (DENV4, viral yield assay); < 5 µM in the assay on DENV-3 (DENV3, viral yield assay).

Turning to `Nc1c(C(=O)Nc2ccc(F)c(F)c2)sc2nc(-c3ccc4c(c3)OCO4)ccc12` [Compound 597, 3-amino-6-(1,3-benzodioxol-5-yl)-N-(3,4-difluorophenyl)thieno[2,3-b]pyridine-2-carboxamide], the EC50 is < 5 µM in assay [1] (DENV2, Vero, 48 h); < 5 µM with DENV-1 (DENV1, viral yield assay); < 5 µM in the assay on DENV-4 (DENV4, viral yield assay); < 5 µM in the assay with DENV-3 (DENV3, viral yield assay).

Turning to `COc1cccc(-c2ccc3c(N)c(C(=O)Nc4cc(Cl)ccc4Cl)sc3n2)c1` [Compound 495, 3-amino-N-(2,5-dichlorophenyl)-6-(3-methoxyphenyl)thieno[2,3-b]pyridine-2-carboxamide], the EC50 was < 5 µM in assay [1] (setting [2]); < 5 µM in the assay with DENV-1 (DENV1, viral yield assay); < 5 µM in the assay on DENV-4 (DENV4, viral yield assay); < 5 µM in the assay with DENV-3 (DENV3, viral yield assay).

Regarding `Nc1c(C(=O)Nc2nnc(-c3ccccc3)s2)sc2nc3c(cc12)C(O)CCCC3` (centres unmarked) [Compound 329], the EC50 in assay [1] (setting [2]) is < 5 µM; in the assay on DENV-1 (DENV1, viral yield assay) it was < 5 µM; in the assay with DENV-4 (DENV4, viral yield assay), < 5 µM; in the assay on DENV-3 (DENV3, viral yield assay) it was 5 to 25 µM.

Take `COc1cccc(-c2ccc3c(N)c(C(=O)Nc4ccc(C)c(Br)c4)sc3n2)c1` [Compound 559, 3-amino-N-(3-bromo-4-methyl-phenyl)-6-(3-methoxyphenyl)thieno[2,3-b] pyridine-2-carboxamide]: the EC50 was < 5 µM in assay [1] (setting [2]); < 5 µM in the assay with DENV-4 (DENV4, viral yield assay); < 5 µM in the assay with DENV-3 (DENV3, viral yield assay).

As to `O=C(O)CNc1c(C(=O)Nc2nnc(-c3ccccc3)s2)sc2nc(Cl)ccc12` [Compound 299, 2-[[6-chloro-2-[(5-phenyl-1,3,4-thiadiazol-2-yl)carbamoyl]thieno[2,3-b]pyridin-3-yl]amino]acetic acid], the EC50 fell in the range of 5 to 25 µM in assay [1] (DENV2, Vero cells); 5 to 25 µM with DENV-1 (DENV1); 5 to 25 µM in the assay with DENV-4 (DENV4).

Take `COc1ccc(-c2ccc3c(N)c(C(=O)Nc4ccc(OC(F)(F)F)cc4)sc3n2)cc1OC` [Compound 584, 3-amino-6-(3,4-dimethoxyphenyl)-N-[4-(trifluoromethoxy)phenyl]thieno[2,3-b] pyridine-2-carboxamide]: the EC50 in assay [1] (setting [2]) was < 5 µM; in the assay with DENV-4 (DENV4, viral yield assay), < 5 µM.

`Nc1c(C(=O)Nc2ccc(F)cc2Cl)sc2nc(-c3ccc(F)cc3)ccc12` [Compound 618, 3-amino-N-(2-chloro-4-fluoro-phenyl)-6-(4-fluorophenyl)thieno[2,3-b]pyridine-2-carboxamide]: the EC50 in assay [1] (setting [2]) is < 5 µM; with DENV-1 (DENV1, viral yield assay), < 5 µM.

Consider `Nc1c(C(=O)Nc2ccc(F)cc2)sc2nc(-c3ccc4c(c3)OCO4)ccc12` [Compound 603, 3-amino-6-(1,3-benzodioxol-5-yl)-N-(4-fluorophenyl)thieno[2,3-b]pyridine-2-carboxamide], for which the EC50 is < 5 µM in assay [1] (DENV2, Vero, 48 h) and < 5 µM in the assay with DENV-4 (DENV4, viral yield assay).

With `COc1cccc(-c2ccc3c(N)c(C(=O)Nc4ccc(C)cc4)sc3n2)c1` [Compound 553, 3-amino-6-(3-methoxyphenyl)-N-(p-tolyl)thieno[2,3-b]pyridine-2-carboxamide], the EC50 in assay [1] (setting [2]) was < 5 µM.
